The target of one data set is adenosine deaminase (Homo sapiens, UniProt P00813). Put plainly: Inhibition of adenosine deaminase (ADA), adenosine as substrate, purified enzyme. The class given is biochemical. From the text:
The mixture of the R and S isomers of the 4,5,6-trihydro-1-(β-D-ribofuranosyl) pyrazolo [5,4-d]

Data set [1] relates to human erythrocytic adenosine deaminase. The note with it: cited from earlier work.
The conditions of data set [2]: clinical trials; cited from earlier work.
[3] abbreviates: Inhibition of Adenosine Deaminase by Target Compounds, adenosine as substrate, purified enzyme, read-out: Ki.

Read-outs that look alike come from different tables or passages of the source.

Chain of adenosine deaminase (P00813 whole entry): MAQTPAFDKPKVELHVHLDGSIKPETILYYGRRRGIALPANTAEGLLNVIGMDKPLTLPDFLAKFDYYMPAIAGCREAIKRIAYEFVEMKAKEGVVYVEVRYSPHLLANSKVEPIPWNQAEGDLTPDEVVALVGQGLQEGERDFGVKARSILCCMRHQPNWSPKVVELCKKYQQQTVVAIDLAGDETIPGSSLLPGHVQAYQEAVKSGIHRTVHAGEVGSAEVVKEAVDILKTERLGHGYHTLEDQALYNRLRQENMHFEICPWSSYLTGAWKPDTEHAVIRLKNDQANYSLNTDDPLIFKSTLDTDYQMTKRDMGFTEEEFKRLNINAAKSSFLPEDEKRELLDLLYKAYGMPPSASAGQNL

Usually Ki stands for a measure of affinity in units of concentration, obtained from inhibition or displacement. As for `OC[C@H]1O[C@@H](n2ncc3c2N=CNCC3O)[C@H](O)[C@@H]1O` (mixture of isomers) [(3 + 26), 4,5,6-Tihydro-1-(β-D-ribofuranosyl)pyrazolo [5,4-d]-[1,3] diazepin-4(R,S)-ol], the Ki at adenosine deaminase (setting [3]) worked out at 2000 nM. On to `OC[C@H]1O[C@@H](n2nnc3c2N=CNC[C@@H]3O)[C@H](O)[C@@H]1O` [37 (S), 6,7,8-Trihydro-3-β-D-ribofuranosyl-v-triazole [4,5-d] [1,3] diazepin-8(R,S)-ol], for which the Ki at adenosine deaminase (setting [3]) is 85000 nM. With `OC[C@H]1O[C@@H](n2cnc3c2N=CNC[C@H]3O)[C@H](O)[C@@H]1O` [2, coformycin, reference compound], the tight binding inhibition entry in data set [1] is “exceedingly tight binding inhibitors”. This compound had a Ki on adenosine deaminase of 0.12 nM. Regarding `OC[C@H]1O[C@@H](n2cnc3c2NC=NC[C@H]3O)C[C@@H]1O` [pentostatin, 8(R)-3-(2-deoxy-β-D-erythro-pentofuranosyl)-3,6,7,8-tetrahydroimidazo[4,6-d][1,3]diazepin-8-ol], the acute renal toxicity result in data set [2] is given as “acute renal toxicity”. Moreover, in data set [1], the tight binding inhibition result was “exceedingly tight binding inhibitors”.

On to `OC[C@H]1O[C@@H](n2nnc3c2N=CNC[C@H]3O)[C@H](O)[C@@H]1O` [4 (R), 6,7,8-Trihydro-3-β-D-ribofuranosyl-v-triazole [4,5-d] [1,3] diazepin-8(R,S)-ol], for which, on adenosine deaminase (Preliminary estimates based on conventional kinetic analysis, adenosine as substrate, purified enzyme, read-out: Ki), the Ki was 2 nM. For the same compound, the “type of inhibition of ADA” value is reported as “very tight-bindinginhibitor” at adenosine deaminase (adenosine as substrate, purified enzyme, listed as Compound 4) and “potent tight-binding inhibitor” on adenosine deaminase (adenosine as substrate, purified enzyme, listed as compound 4).

The record behind these values is US4935505A, “Novel azolo [1,3] diazepine-5-ol compounds and their uses” (priority 1988, dated 1990).
